Reference: EP0353754A2, “Radioactively marked benzodiazepin derivates” (F. HOFFMANN-LA ROCHE AG, priority 1988, dated 1990)
Read-outs that look alike come from different tables or passages of the source.

Test: Organ distribution of injected radioactivity in rats after I.V. injection
Type: in vivo, Ratten (weiblich, Wistar, spf)
Settings: Ratte; for tissue uptake at 2 min / tissue uptake at 10 min / tissue uptake at 20 min / tissue uptake at 40 min / tissue uptake at 1 h / tissue uptake at 6 h / tissue uptake at 15 h: rat, iv, read-out: Prozent der injizierten Aktivität pro Gramm des entsprechenden Organs; for tissue uptake at 1 h: 60′
Protocol: Es werden je 3 Ratten (weiblich, Wistar, spf) zu sieben verschiedenen Zeitpunkten (2′, 10′, 20′, 40′, 1h, 6h, 15h) gemessen. Das Gewicht der Tiere lag zwischen 113 und 144 g. Die Fütterung erfolgte ad libitum. Die I.V. injizierten Dosen variierten von 184 bis 355 µCi in jeweils 0,2 ml.

CCOC(=O)c1ncn2c1CN(C)C(=O)c1c([123I])cccc1-2 [Aethyl-7-¹²³Jod-5,6-dihydro-5-methyl-6-oxo-4H-imidazo[1,5-a][1,4]benzodiazepin-3-carboxylat]
Prozent der injizierten Aktivität in den entsprechend Organen (Totalkörper, 15h): 2,80 Prozent der injizierten Aktivität
tissue uptake at 2 min (bladder, Blase): 0.59 %ID/g
tissue uptake at 10 min (bladder, Blase): 1.07 %ID/g
tissue uptake at 20 min (bladder, Blase): 0.69 %ID/g
tissue uptake at 40 min (bladder, Blase): 0.24 %ID/g
tissue uptake at 1 h (bladder, Blase): 0.42 %ID/g
tissue uptake at 6 h (bladder, Blase): 0.57 %ID/g
tissue uptake at 15 h (bladder, Blase, 15h): 0.023 %ID/g
tissue uptake at 2 min (blood, Blut): 0.7 %ID/g
tissue uptake at 10 min (blood, Blut): 0.87 %ID/g
tissue uptake at 20 min (blood, Blut): 0.46 %ID/g
tissue uptake at 40 min (blood, Blut): 0.17 %ID/g
tissue uptake at 1 h (blood, Blut): 0.11 %ID/g
tissue uptake at 6 h (blood, Blut): 0.04 %ID/g
tissue uptake at 15 h (blood, Blut, 15h): 0.013 %ID/g
tissue uptake at 2 min (brain, Hirn): 2.12 %ID/g
tissue uptake at 10 min (brain, Hirn): 3.22 %ID/g
tissue uptake at 20 min (brain, Hirn): 2.99 %ID/g
tissue uptake at 40 min (brain, Hirn): 2.7 %ID/g
tissue uptake at 1 h (brain, Hirn): 1.8 %ID/g
tissue uptake at 6 h (brain, Hirn): 0.05 %ID/g
tissue uptake at 15 h (brain, Hirn, 15h): 0.001 %ID/g
tissue uptake at 2 min (heart, Herz): 0.86 %ID/g
tissue uptake at 10 min (heart, Herz): 0.66 %ID/g
tissue uptake at 20 min (heart, Herz): 0.3 %ID/g
tissue uptake at 40 min (heart, Herz): 0.1 %ID/g
tissue uptake at 1 h (heart, Herz): 0.06 %ID/g
tissue uptake at 6 h (heart, Herz): 0.02 %ID/g
tissue uptake at 15 h (heart, Herz, 15h): 0.007 %ID/g
tissue uptake at 2 min (intestine, Darm): 0.75 %ID/g
tissue uptake at 10 min (intestine, Darm): 1.1 %ID/g
tissue uptake at 20 min (intestine, Darm): 1.73 %ID/g
tissue uptake at 40 min (intestine, Darm): 2.02 %ID/g
tissue uptake at 1 h (intestine, Darm): 1.97 %ID/g
tissue uptake at 6 h (intestine, Darm): 1.55 %ID/g
tissue uptake at 15 h (intestine, Darm, 15h): 0.143 %ID/g
tissue uptake at 2 min (Femur): 0.54 %ID/g
tissue uptake at 10 min (Femur): 0.45 %ID/g
tissue uptake at 20 min (Femur): 0.24 %ID/g
tissue uptake at 40 min (Femur): 0.1 %ID/g
tissue uptake at 1 h (Femur): 0.07 %ID/g
tissue uptake at 6 h (Femur): 0.02 %ID/g
tissue uptake at 15 h (Femur, 15h): 0.007 %ID/g
tissue uptake at 2 min (kidney, Nieren): 2.68 %ID/g
tissue uptake at 10 min (kidney, Nieren): 7.06 %ID/g
tissue uptake at 20 min (kidney, Nieren): 5.26 %ID/g
tissue uptake at 40 min (kidney, Nieren): 1.35 %ID/g
tissue uptake at 1 h (kidney, Nieren): 0.68 %ID/g
tissue uptake at 6 h (kidney, Nieren): 0.03 %ID/g
tissue uptake at 15 h (kidney, Nieren, 15h): 0.01 %ID/g
tissue uptake at 2 min (liver, Leber): 2.38 %ID/g
tissue uptake at 10 min (liver, Leber): 5.66 %ID/g
tissue uptake at 20 min (liver, Leber): 2.62 %ID/g
tissue uptake at 40 min (liver, Leber): 0.58 %ID/g
tissue uptake at 1 h (liver, Leber): 0.19 %ID/g
tissue uptake at 6 h (liver, Leber): 0.02 %ID/g
tissue uptake at 15 h (liver, Leber, 15h): 0.016 %ID/g
tissue uptake at 2 min (lung, Lunge): 1.22 %ID/g
tissue uptake at 10 min (lung, Lunge): 0.87 %ID/g
tissue uptake at 20 min (lung, Lunge): 0.44 %ID/g
tissue uptake at 40 min (lung, Lunge): 0.15 %ID/g
tissue uptake at 1 h (lung, Lunge): 0.1 %ID/g
tissue uptake at 6 h (lung, Lunge): 0.03 %ID/g
tissue uptake at 15 h (lung, Lunge, 15h): 0.011 %ID/g
tissue uptake at 2 min (muscle, Muskel): 0.68 %ID/g
tissue uptake at 10 min (muscle, Muskel): 0.42 %ID/g
tissue uptake at 20 min (muscle, Muskel): 0.2 %ID/g
tissue uptake at 40 min (muscle, Muskel): 0.09 %ID/g
tissue uptake at 1 h (muscle, Muskel): 0.04 %ID/g
tissue uptake at 6 h (muscle, Muskel): 0.01 %ID/g
tissue uptake at 15 h (muscle, Muskel, 15h): 0.003 %ID/g
tissue uptake at 2 min (ovary, Ovar): 0.88 %ID/g
tissue uptake at 10 min (ovary, Ovar): 0.73 %ID/g
tissue uptake at 20 min (ovary, Ovar): 0.53 %ID/g
tissue uptake at 40 min (ovary, Ovar): 0.22 %ID/g
tissue uptake at 1 h (ovary, Ovar): 0.16 %ID/g
tissue uptake at 6 h (ovary, Ovar): 0.03 %ID/g
tissue uptake at 15 h (ovary, Ovar, 15h): 0.011 %ID/g
tissue uptake at 2 min (spleen, Milz): 0.6 %ID/g
tissue uptake at 10 min (spleen, Milz): 0.53 %ID/g
tissue uptake at 20 min (spleen, Milz): 0.29 %ID/g
tissue uptake at 40 min (spleen, Milz): 0.14 %ID/g
tissue uptake at 1 h (spleen, Milz): 0.07 %ID/g
tissue uptake at 6 h (spleen, Milz): 0.02 %ID/g
tissue uptake at 15 h (spleen, Milz, 15h): 0.01 %ID/g
tissue uptake at 2 min (stomach, Magen): 0.19 %ID/g
tissue uptake at 10 min (stomach, Magen): 0.41 %ID/g
tissue uptake at 20 min (stomach, Magen): 0.35 %ID/g
tissue uptake at 40 min (stomach, Magen): 0.27 %ID/g
tissue uptake at 1 h (stomach, Magen): 0.48 %ID/g
tissue uptake at 6 h (stomach, Magen): 0.73 %ID/g
tissue uptake at 15 h (stomach, Magen, 15h): 0.08 %ID/g
tissue uptake at 2 min (thyroid, Schilddrüse): 0.6 %ID/g
tissue uptake at 10 min (thyroid, Schilddrüse): 0.54 %ID/g
tissue uptake at 20 min (thyroid, Schilddrüse): 1.22 %ID/g
tissue uptake at 40 min (thyroid, Schilddrüse): 0.08 %ID/g
tissue uptake at 1 h (thyroid, Schilddrüse): 0.06 %ID/g
tissue uptake at 6 h (thyroid, Schilddrüse): 0.03 %ID/g
tissue uptake at 15 h (thyroid, Schilddrüse, 15h): 0.007 %ID/g
